# Measured values published in patent publication US6783985B1, “Gene disruption methodologies for drug target discovery” (Elitra Pharmaceuticals Inc., priority 2000, dated 2004).
# Key:
# CaALG7 GRACE strain = assay: Target level variation whole cell assay, CaALG7 GRACE strain; format: cell-based, Candida albicans
# Source text: (§1) Moreover, these experiments clearly indicate how distinct levels of target gene products synthesized within the pathogen could be directly applied in whole cell assay based drug screens to identify novel antifungal compounds against those novel drug targets validated using the GRACE method.
# [1] = tested on: S. cerevisiae bar-coded strains bearing heterozygous mutations in HIS3, TUB1, ALG7, and ERG11; settings: grown together in a mixed population; targets HIS3, TUB1, ALG7, ERG11 respectively; cited from earlier work
# C. albicans = assay: Sensitivity of C. albicans to selection antibiotics; format: cell-based, Candida albicans
# Source text: Several art-known methods are available to create a heterozygote mutant. In less preferred embodiments, auxotrophic markers, such as but not limited to CaURA3, CaHIS3, CaLEU2, or CaTRP1, could be used for gene disruption if desired. However, the preferred method of heterozygote construction in diploid fungi employs a genetically modified dominant selectable marker. C. albicans is sensitive to the nucleoside-like antibiotic streptothricin at a concentration of 200 micrograms per milliliter. The presence of the Escherichia coli SAT1 gene within C. albicans allows acetylation of the drug rendering it nontoxic and permitting the strain to grow in the presence of streptothricin at a concentration of 200 micrograms per milliliter. Expression of the SAT1 gene in C. albicans is made possible by engineering the gene so that its DNA sequence is altered to conform to the genetic code of this organism and by providing a CaACT1 promoter (Morschhauser et al. (1998) Mol. Gen. Genet. 257:412-420) and a CaPCK1 terminator sequence (Leuker et al. (1997) Gene 192: 235-40). This genetically modified marker is referred to as CaSAT1 which is the subject of a copending United States nonprovisional application, filed Feb. 16, 2001. […]
# CaERG11 GRACE strain = assay: Target level variation whole cell assay, CaERG11 GRACE strain; format: cell-based, Candida albicans
# Source text: as §1
# CaERG11 = settings: determined biochemically; cited from earlier work
# [2] = tested on: wild type (diploid) CaHIS3 strain, CaHIS3 heterozygote strain and tetracycline promoter-regulated CaHIS3 GRACE strain; assay: Target level variation whole cell assay: 3-AT sensitivity of CaHIS3 strains; format: cell-based, Candida albicans; settings: for sensitivity of partially repressed (minimally expressing) CaHIS3 GRACE strain relative to heterozygous CaHIS3 strain: intermediate 3-AT concentration, threshold tetracycline (FIG. 6C, 6D)
# Source text: as §1, with “The data derived from” for “Moreover,”, “that” for “how”, “compounds active” for “compounds”, “against” for “against those”
# 3-AT is a competitive inhibitor of the enzyme encoded by CaHIS3, imidazoleglycerol phosphate dehydratase, and together serve as a model for a drug and drug target respectively. […] The phenotype observed is consistent with that expected in light of the predicted 7.5 fold overexpression of CaHIS3 determined by Northern bolt analysis (see FIG. 5). […] A third CaHIS3 expression level evaluated for differential sensitivity to 3-AT was produced by partial repression of the GRACE CaHIS3 strain using a threshold concentration of tetracycline 0.1% […].
# as §1
# [3] = intermediate 3-AT concentration (FIG. 6B)
compound,measurement,setting,value
tunicamycin,GRACE strain-specific phenotypes on increasing and decreasing expression of the drug target CaALG7,CaALG7 GRACE strain,drug resistance and sensitivity phenotypes
same,sensitivity of the strain heterozygous for the compound's drug target versus other heterozygote bar-coded strains,[1],significantly greater sensitivity
CN(CC[C@H](N)CC(=O)N[C@H]1C=C[C@H](n2ccc(N)nc2=O)O[C@@H]1C(=O)O)C(=N)N [blasticidin],sensitivity of C. albicans to the fungicidal compound,C. albicans,sensitive
streptothricin,sensitivity of C. albicans to the antibiotic,C. albicans; streptothricin at 200 micrograms per milliliter,sensitive
CCCCNC(=O)n1c(NC(=O)OC)nc2ccccc21 [benomyl],sensitivity of the strain heterozygous for the compound's drug target versus other heterozygote bar-coded strains,[1],significantly greater sensitivity
OC(Cn1cncn1)(Cn1cncn1)c1ccc(F)cc1F [fluconazole],GRACE strain-specific phenotypes on increasing and decreasing expression of the drug target CaERG11,CaERG11 GRACE strain,drug resistance and sensitivity phenotypes
same,sensitivity of the strain heterozygous for the compound's drug target versus other heterozygote bar-coded strains,[1],significantly greater sensitivity
same,"mode of action, static or cidal",CaERG11,static
"Nc1nc[nH]n1 [3-AT, 3-aminotriazole]",phenotype of CaHIS3 GRACE strain overexpressing CaHIS3 (constitutive tetracycline promoter expression),[2]; 3-AT concentrations that completely inhibit wild type and heterozygote (FIG. 6A),resistance
same,growth of wild type and CaHIS3 heterozygote strains,[2]; inhibitory levels of 3-AT (FIG. 6A),completely inhibit growth
same,effect on wild type and tetracycline promoter-based overproducing CaHIS3 strains,[2]; [3],unable to effect
same,sensitivity of heterozygous CaHIS3 strain (haploinsufficient phenotype),[2]; [3],enhanced sensitivity
same,sensitivity of partially repressed (minimally expressing) CaHIS3 GRACE strain relative to heterozygous CaHIS3 strain,[2],enhanced drug sensitivity
same,sensitivity of partially repressed (minimally expressing) CaHIS3 GRACE strain relative to heterozygous CaHIS3 strain,[2]; listed as 3-aminotriazole,hypersensitivity
same,sensitivity of the strain heterozygous for the compound's drug target versus other heterozygote bar-coded strains,[1],significantly greater sensitivity
